Key:
Long term stability test = format: physicochemical; details: 25° C.±2° C., relative humidity 60%±10%; for Content of C25H21F2NO3, based on anhydride: shall be no less than 97.0%; for Relevant substances: Single maximum unknown foreign matter: shall not exceed 0.3%; for Relevant substances: Total foreign matter: shall not exceed 1.5%; for Moisture: shall not exceed 2.0%
Protocol: In accordance with the stability test guiding principles (Chinese Pharmacopoeia 2010 Edition 2—Annex XIX C), prepare the samples of the crystal form I of the compound of formula A described in embodiment 6 in a commercial package, place the samples in a thermotank at the temperature of 25° C.±2° C. with the relative humidity of 60%±10%, take each sample from the samples once at the ends of the third month, the sixth month and the ninth month respectively to detect the key stability inspection items of each sample and compare with the result of the sample at the zero day, wherein see Table 3 for the comparisons.

[1] = Accelerated stability test; format: physicochemical; details: 40° C.±2° C., relative humidity 75%±5%; for Melting point / Content of C25H21F2NO3, based on anhydride / Relevant substances: Single maximum unknown foreign matter / Relevant substances: Total foreign matter / Moisture / Relevant substances: Diastereomer: commercial package; for Melting point: limit 149-153° C.; for Content of C25H21F2NO3, based on anhydride: shall be no less than 97.0%; for Relevant substances: Single maximum unknown foreign matter: shall not exceed 0.3%; for Relevant substances: Total foreign matter: shall not exceed 1.5%; for Moisture: shall not exceed 2.0%; for Relevant substances: Diastereomer: shall not exceed 1.0%
Protocol: In accordance with the stability test guiding principles (Chinese Pharmacopoeia 2010 Edition 2—Annex XIX C), prepare the sample of the crystal form I of the compound of formula A described in embodiment 6 in a commercial package, place the samples in a thermotank at the temperature of 40° C.±2° C. with the relative humidity of 75%±5%, with the duration of 6 months, take each sample once at the ends of the first month, the second month, the third month and the sixth month respectively to detect the key stability inspection items and compare with the results of the sample at the zero day, wherein see Table 4 for the comparisons.

[2] = commercial package, month 9, shall not exceed 0.5%

O=C1[C@H](C/C=C(\CO)c2ccc(F)cc2)[C@@H](c2ccc(O)cc2)N1c1ccc(F)cc1 [crystal form I, (3R,4S)-4-(4-hydroxyphenyl)-3-[3-(4-fluorophenyl)-4-hydroxybut-2(Z)-enyl]-1-(4-fluorophenyl)-2-azetidinone]
Content of C25H21F2NO3, based on anhydride (Long term stability test; commercial package, month 0): 98.74% | Relevant substances: Single maximum unknown foreign matter (Long term stability test; commercial package, month 0): 0.097% | Relevant substances: Total foreign matter (Long term stability test; commercial package, month 0): 0.342% | Moisture (Long term stability test; commercial package, month 0): 0.23% | Content of C25H21F2NO3, based on anhydride (Long term stability test; commercial package, month 3): 98.99% | Relevant substances: Single maximum unknown foreign matter (Long term stability test; commercial package, month 3): 0.1013% | Relevant substances: Total foreign matter (Long term stability test; commercial package, month 3): 0.3488% | Moisture (Long term stability test; commercial package, month 3): 0.41% | Content of C25H21F2NO3, based on anhydride (Long term stability test; commercial package, month 6): 98.83% | Relevant substances: Single maximum unknown foreign matter (Long term stability test; commercial package, month 6): 0.0956% | Relevant substances: Total foreign matter (Long term stability test; commercial package, month 6): 0.3551% | Moisture (Long term stability test; commercial package, month 6): 0.56% | Content of C25H21F2NO3, based on anhydride (Long term stability test; commercial package, month 9): 98.91% | Relevant substances: Single maximum unknown foreign matter (Long term stability test; commercial package, month 9): 0.0940% | Isomer: E-isomer (Long term stability test; [2]): 0.0161% | Isomer: Enantiomer (Long term stability test; [2]): 0.0587% | Relevant substances: Total foreign matter (Long term stability test; commercial package, month 9): 0.3581% | Moisture (Long term stability test; commercial package, month 9): 0.32% | Long term stability, conclusion on inspection indexes (Long term stability test; nine month): various inspection indexes of the samples do not change apparently and all meet the specifications | Melting point ([1]; month 0): 149.8-152.1 °C | Content of C25H21F2NO3, based on anhydride ([1]; month 0): 98.71% | Relevant substances: Single maximum unknown foreign matter ([1]; month 0): 0.097% | Relevant substances: Total foreign matter ([1]; month 0): 0.342% | Moisture ([1]; month 0): 0.20% | Melting point ([1]; month 1): 149.3-151.5 °C | Content of C25H21F2NO3, based on anhydride ([1]; month 1): 99.11% | Relevant substances: Single maximum unknown foreign matter ([1]; month 1): 0.1004% | Relevant substances: Diastereomer ([1]; month 1): 0.0128% | Relevant substances: Total foreign matter ([1]; month 1): 0.3757% | Moisture ([1]; month 1): 0.30% | Melting point ([1]; month 2): 149.7-152.1 °C | Content of C25H21F2NO3, based on anhydride ([1]; month 2): 98.82% | Relevant substances: Single maximum unknown foreign matter ([1]; month 2): 0.0856% | Relevant substances: Diastereomer ([1]; month 2): Not detected | Relevant substances: Total foreign matter ([1]; month 2): 0.3650% | Moisture ([1]; month 2): 0.28% | Melting point ([1]; month 3): 149.7-152.1 °C | Content of C25H21F2NO3, based on anhydride ([1]; month 3): 98.78% | Relevant substances: Single maximum unknown foreign matter ([1]; month 3): 0.0983% | Relevant substances: Diastereomer ([1]; month 3): Not detected | Relevant substances: Total foreign matter ([1]; month 3): 0.3717% | Moisture ([1]; month 3): 0.37% | Melting point ([1]; month 6): 149.5-151.9 °C | Content of C25H21F2NO3, based on anhydride ([1]; month 6): 97.97% | Relevant substances: Single maximum unknown foreign matter ([1]; month 6): 0.2017% | Relevant substances: Diastereomer ([1]; month 6): Not detected | Relevant substances: Total foreign matter ([1]; month 6): 1.0828% | Moisture ([1]; month 6): 0.44% | Accelerated stability, conclusion on inspection indexes ([1]; 6 months): the relevant substances are grown significantly in the sixth month and the content is reduced at a certain level; however, both of the two are within the acceptable range

From patent US9802891B2, “Crystal forms of azetidinone compounds and preparing methods thereof” (Zhejiang Hisun Pharmaceutical Co., Ltd., priority 2012, dated 2017)
